Structures can show the parent of a compound that is named as a salt.
What follows are compounds tested on SMN2 promoter (assay: SMN2 promoter assay (β-lactamase reporter) in NSC-34 cells). Settings: Mus musculus, SMN2 promoter driving β-lactamase, 12 point dose curve, average of 3-6 dose curve experiments.
Assay type: cell-based, mouse
Description: All compounds were screened using an in vitro based SMN2 promoter assay. We used NSC-34 cells, a hybrid cell line between mouse spinal cord cells and mouse neuroblastoma cells. NSC-34 cells harbor an expression plasmid containing a 3.4 kb promoter fragment of the SMN2 gene driving β-lactamase expression.
[…] […] CCF2-AM diffuses across the plasma membrane and is converted into an active β-lactamase substrate by cytoplasmic esterase. […] The fold induction is proportional to the extent of β-lactamase produced and in turn proportional to SMN2 promoter activation for a given compound relative to vehicle (DMSO) control. […] These values are used to rank activities of the compounds and derive structure activity relationship.
For `CC(Oc1cccc2nc(N)nc(N)c12)c1ccccn1` (centres unmarked) [Example 57, 5-(1-Pyridin-2-ylethoxy)quinazoline-2,4-diamine], the EC50 was < 1 µM. With `CC(Oc1cccc2nc(N)nc(N)c12)c1nccs1` (centres unmarked) [Example 58, 5-(1-Thiazol-2-ylethoxy)quinazoline-2,4-diamine] the EC50 was < 1 µM. With `Nc1nc(N)c2c(N3CCCCC3)cccc2n1` [Example 59, 5-(Piperidin-1-yl)quinazoline-2,4-diamine] the EC50 was < 1 µM. For `Cc1cccc(S(=O)(=O)c2cccc3nc(N)nc(N)c23)c1` [Example 60, 5-(Toluene-3-sulfonyl)-quinazoline-2,4-diamine], the EC50 was 1 to 5 µM. With `Nc1nc(N)c2c(OC3CCc4ccc(Cl)cc43)cccc2n1` (centres unmarked) [Example 61, 5-(6-Chloro-indan-1-yloxy)-quinazoline-2,4-diamine] the EC50 was < 1 µM. For `Nc1nc(N)c2c(OCc3ccc(Br)cc3)cccc2n1` [Example 62, 5-(4-Bromobenzyloxy)-quinazoline-2,4-diamine], the EC50 was < 1 µM. `CC(Oc1cccc2nc(N)nc(N)c12)c1cccc(I)c1` (centres unmarked) [Example 63, 5-[1-(3-Iodophenyl)-ethoxy]-quinazoline-2,4-diamine] was tested, and the EC50 was < 1 µM. In the case of `CC(Oc1cccc2nc(N)nc(N)c12)c1ccc2c(c1)OCO2` (centres unmarked) [Example 64, 5-(1-Benzo[1,3]-dioxol-5-yl-ethoxy)-quinazoline-2,4-diamine], the EC50 is reported as < 1 µM. In the case of `COc1ccc(COc2cccc3nc(N)nc(N)c23)cc1OC` [Example 65, 5-(3,4-Dimethoxybenzyloxy)-quinazoline-2,4-diamine], the EC50 is reported as < 1 µM. With `COc1cccc(C(C)Oc2cccc3nc(N)nc(N)c23)c1` (centres unmarked) [Example 66, 5-[1-(3-Methoxyphenyl)-ethoxy]-quinazoline-2,4-diamine] the EC50 was < 1 µM. With `COc1cc(OC)cc(C(C)Oc2cccc3nc(N)nc(N)c23)c1` (centres unmarked) [Example 67, 5-[1-(3,5-Dimethoxyphenyl)-ethoxy]-quinazoline-2,4-diamine] the EC50 was < 1 µM. In the case of `COCOCC(COc1cccc2nc(N)nc(N)c12)c1ccc(Cl)cc1` (centres unmarked) [Example 68, 5-[2-(4-Chlorophenyl)-3-methoxymethoxypropoxy]-quinazoline-2,4-diamine], the EC50 is reported as < 1 µM. In the case of `Nc1nc(N)c2c(OCC(CO)c3ccc(Cl)cc3)cccc2n1` (centres unmarked) [Example 69, 2-(4-Chlorophenyl)-3-(2,4-diaminoquinazolin-5-yloxy)-propan-1-ol hydrochloride], the EC50 is reported as < 1 µM. For `Nc1nc(N)c2c(OCc3cc(Cl)c(Cl)cc3CO)cccc2n1` [Example 70, [4,5-Dichloro-2-(2,4-diaminoquinazolin-5-yloxymethyl)phenyl]methanol hydrochloride], the EC50 was < 1 µM. `COc1cc(Cl)ccc1Oc1cccc2nc(N)nc(N)c12` [Example 71, 5-(4-Chloro-2-methoxyphenoxy)-quinazoline-2,4-diamine] was tested, and the EC50 was < 1 µM. In the case of `Nc1nc(N)c2c(OCC34CC5CC(CC(C5)C3)C4)cccc2n1` [Example 73, 5-(Adamantan-1-ylmethoxy)-quinazoline-2,4-diamine], the EC50 is reported as < 1 µM. For `Nc1nc(N)c2c(OCc3ccccc3Br)cccc2n1` [Example 74, 5-(2-Bromo-benzyloxy)-quinazoline-2,4-diamine], the EC50 was < 1 µM. In the case of `Nc1nc(N)c2c(OCc3ccccc3I)cccc2n1` [Example 75, 5-(2-Iodo-benzyloxy)-quinazoline-2,4-diamine], the EC50 is reported as < 1 µM. With `Nc1nc(N)c2c(OCc3cccc(Br)c3)cccc2n1` [Example 76, 5-(3-Bromobenzyloxy)quinazoline-2,4-diamine] the EC50 was < 1 µM. For `Nc1nc(N)c2c(OCc3cccc(I)c3)cccc2n1` [Example 77, 5-(3-Iodo-benzyloxy)-quinazoline-2,4-diamine], the EC50 was < 1 µM. With `CC(Oc1cccc2nc(N)nc(N)c12)c1ccc(Cl)c(Cl)c1` (centres unmarked) [Example 78, 5-[1-(3,4-Dichlorophenyl)-ethoxy]-quinazoline-2,4-diamine] the EC50 was < 1 µM. In the case of `Nc1nc(N)c2c(OCc3cc(F)cc(F)c3)cccc2n1` [Example 79, 5-(3,5-Difluorobenzyloxy)quinazoline-2,4-diamine], the EC50 is reported as < 1 µM. With `Nc1nc(N)c2c(OC3CCc4c(F)cccc43)cccc2n1` (centres unmarked) [Example 80, 5-(4-Fluoroindan-1-yloxy)-quinazoline-2,4-diamine] the EC50 was < 1 µM. `Nc1nc(N)c2c(OC3CCc4ccc(F)cc43)cccc2n1` (centres unmarked) [Example 81, 5-(6-Fluoroindan-1-yloxy)-quinazoline-2,4-diamine] was tested, and the EC50 was < 1 µM. For `CC(Oc1cccc2nc(N)nc(N)c12)c1c(F)cccc1F` (centres unmarked) [Example 82, 5-[1-(2,6-Difluorophenyl)-ethoxy]-quinazoline-2,4-diamine], the EC50 was < 1 µM. In the case of `Nc1nc(N)c2c(OCc3cc(F)cc(F)c3F)cccc2n1` [Example 83, 5-(2,3,5-Trifluorobenzyloxy)-quinazoline-2,4-diamine], the EC50 is reported as < 1 µM. In the case of `Nc1nc(N)c2c(OCc3cc(F)ccc3F)cccc2n1` [Example 84, 5-(2,5-Difluorobenzyloxy)-quinazoline-2,4-diamine], the EC50 is reported as < 1 µM. `Nc1nc(N)c2c(OCc3ccc(F)cc3F)cccc2n1` [Example 85, 5-(2,4-Difluorobenzyloxy)-quinazoline-2,4-diamine] was tested, and the EC50 was < 1 µM. In the case of `Nc1nc(N)c2c(OCc3c(F)cccc3F)cccc2n1` [Example 86, 5-(2,6-Difluorobenzyloxy)-quinazoline-2,4-diamine], the EC50 is reported as < 1 µM. With `Nc1nc(N)c2c(OCc3ccc(F)c(F)c3)cccc2n1` [Example 87, 5-(3,4-Difluorobenzyloxy)quinazoline-2,4-diamine] the EC50 was < 1 µM. `COc1ccc(Cl)cc1COc1cccc2nc(N)nc(N)c12` [Example 88, 5-(5-Chloro-2-methoxybenzyloxy)quinazoline-2,4-diamine] was tested, and the EC50 was < 1 µM. `Nc1nc(N)c2c(OCc3cc(Cl)ccc3CO)cccc2n1` [Example 89, [4-Chloro-2-(2,4-diamino-quinazolin-5-yloxymethyl)-phenyl]-methanol hydrochloride] was tested, and the EC50 was < 1 µM. In the case of `Nc1nc(N)c2c(-c3ccsc3)cccc2n1` [Example 90, 5-Thiophen-3-yl-quinazoline-2,4-diamine], the EC50 is reported as 1 to 5 µM. For `Nc1nc(N)c2c(-c3cccc(Cl)c3)cccc2n1` [Example 91, 5-(3-Chlorophenyl)-quinazoline-2,4-diamine], the EC50 was < 1 µM. For `C[C@@H](Oc1cccc2nc(N)nc(N)c12)c1cccc(Cl)c1` [Example 92, 5-[(R)-1-(3-Chlorophenyl)ethoxyl]quinazolin-2,4-diamine], the EC50 was < 1 µM. For `CC(Oc1cccc2nc(N)nc(N)c12)c1cccc(F)c1` (centres unmarked) [Example 93, 5-[1-(3-Fluorophenyl)-ethoxy]-quinazoline-2,4-diamine], the EC50 was < 1 µM. `CC(Oc1cccc2nc(N)nc(N)c12)c1ccccc1C(F)(F)F` (centres unmarked) [Example 94, 5-[1-(2-Trifluoromethylphenyl)-ethoxy]-quinazoline-2,4-diamine] gave an EC50 of 10 to 20 µM. With `CC(Oc1cccc2nc(N)nc(N)c12)c1cccc(C(F)(F)F)c1` (centres unmarked) [Example 95, 5-[1-(3-Trifluoromethylphenyl)-ethoxy]-quinazoline-2,4-diamine] the EC50 was < 1 µM. In the case of `Nc1nc(N)c2c(OCc3ccccc3F)cccc2n1` [Example 96, 5-(2-Fluorobenzyloxy)-quinazoline-2,4-diamine], the EC50 is reported as < 1 µM. `Nc1nc(N)c2c(OCc3ccc(F)cc3)cccc2n1` [Example 97, 5-(4-Fluorobenzyloxy)-quinazoline-2,4-diamine] was tested, and the EC50 was < 1 µM. In the case of `Nc1nc(N)c2c(OCc3cccc(C(F)(F)F)c3)cccc2n1` [Example 98, 5-(3-Trifluoromethylbenzyloxy)-quinazoline-2,4-diamine], the EC50 is reported as < 1 µM. `Nc1nc(N)c2c(OCc3ccccc3C(F)(F)F)cccc2n1` [Example 99, 5-(2-Trifluoromethylbenzyloxy)-quinazoline-2,4-diamine] was tested, and the EC50 was < 1 µM. For `Nc1nc(N)c2c(OCc3ccc(C(F)(F)F)cc3)cccc2n1` [Example 100, 5-(4-Trifluoromethylbenzyloxy)-quinazoline-2,4-diamine], the EC50 was < 1 µM. `CC(Oc1cccc2nc(N)nc(N)c12)c1ccccc1F` (centres unmarked) [Example 103, 5-[1-(2-Fluorophenyl)-ethoxy]-quinazoline-2,4-diamine] was tested, and the EC50 was < 1 µM. In the case of `CC(Oc1cccc2nc(N)nc(N)c12)c1ccccc1Cl` (centres unmarked) [Example 104, 5-[1-(2-Chlorophenyl)ethoxy]-quinazoline-2,4-diamine], the EC50 is reported as < 1 µM. With `CC(Oc1cccc2nc(N)nc(N)c12)c1ccc(C(F)(F)F)cc1` (centres unmarked) [Example 105, 5-[1-(4-Trifluoromethylphenyl)ethoxy]quinazoline-2,4-diamine] the EC50 was < 1 µM. In the case of `Nc1nc(N)c2c(OCc3cc(Cl)cc(Cl)c3)cccc2n1` [Example 106, 5-(3,5-Dichlorobenzyloxy)quinazoline-2,4-diamine], the EC50 is reported as < 1 µM. With `CC(Oc1cccc2nc(N)nc(N)c12)c1cc(F)cc(F)c1` (centres unmarked) [Example 107, 5-[1-(3,5-Difluorophenyl)ethoxy]quinazoline-2,4-diamine] the EC50 was < 1 µM. Work on `C[C@H](Oc1cccc2nc(N)nc(N)c12)c1cccc2ccccc12` [Example 108, 5-((S)-1-Naphthalen-1-yl-ethoxy)-quinazoline-2,4-diamine] yielded an EC50 of 1 to 5 µM. With `C[C@H](Oc1cccc2nc(N)nc(N)c12)c1ccc2ccccc2c1` [Example 109, 5-((S)-1-Naphthalen-2-yl-ethoxy)-quinazoline-2,4-diamine] the EC50 was < 1 µM. `C[C@@H](Oc1cccc2nc(N)nc(N)c12)c1cccc2ccccc12` [Example 110, 5-((R)-1-Naphthalen-1-yl-ethoxy)-quinazoline-2,4-diamine] was tested, and the EC50 was 1 to 5 µM. Compound `CC(Oc1cccc2nc(N)nc(N)c12)c1cccc2ccccc12` (centres unmarked) [Example 111, 5-(1-Naphthalen-1-yl-ethoxy)-quinazoline-2,4-diamine] has an EC50 of 1 to 5 µM.

Same assay, conditions: SMN2 promoter driving β-lactamase, 12 point dose curve, average of 3-6 dose curve experiments
With `COc1cccc2c1OCC2Oc1cccc2nc(N)nc(N)c12` (centres unmarked) [Example 72, 5-(7-Methoxy-2,3-dihydrobenzofuran-3-yoloxy)-quinazoline-2.4-diamine] the EC50 was 1 to 5 µM.

Source: US9067897B2, “2,4-Diaminoquinazolines for spinal muscular atrophy” (Families of Spinal Muscular Atrophy, priority 2004, dated 2015)
